Assay results: ChEMBL document CHEMBL1137385, “Macrocyclic inhibitors of beta-secretase: functional activity in an animal model” (J Med Chem, 2006)
pIC50: −log10 of the molar value.

Assays:
[1] = target: T1, Beta-secretase 1 (Homo sapiens, UniProt P56817); experiment: Inhibition of BACE1 at pH 4.5
[2] = Apparent permeability in porcine LLC-PK1 cells; assay type: ADME, cell-based, Sus scrofa; conditions: pig
[3] = target: T1, Beta-secretase 1; experiment: Inhibition of BACE1 in HEK293T cells; assay type: cell-based, HEK-293T
[4] = system: Mus musculus; experiment: Drug level in brain of C57/BL6 APP-YAC mouse model at 100 mg/kg, iv; assay type: ADME, organism-based, C57Bl/6; set-up: dose 100 mg/kg, route intravenous; conditions: in vivo, read-out: Drug uptake
[5] = system: Mus musculus; experiment: Ratio of drug level in brain against plasma in C57/BL6 APP-YAC mouse model at 100 mg/kg, iv; assay type: ADME, organism-based, C57Bl/6; set-up: dose 100 mg/kg, route intravenous

T1 sequence (P56817 whole entry): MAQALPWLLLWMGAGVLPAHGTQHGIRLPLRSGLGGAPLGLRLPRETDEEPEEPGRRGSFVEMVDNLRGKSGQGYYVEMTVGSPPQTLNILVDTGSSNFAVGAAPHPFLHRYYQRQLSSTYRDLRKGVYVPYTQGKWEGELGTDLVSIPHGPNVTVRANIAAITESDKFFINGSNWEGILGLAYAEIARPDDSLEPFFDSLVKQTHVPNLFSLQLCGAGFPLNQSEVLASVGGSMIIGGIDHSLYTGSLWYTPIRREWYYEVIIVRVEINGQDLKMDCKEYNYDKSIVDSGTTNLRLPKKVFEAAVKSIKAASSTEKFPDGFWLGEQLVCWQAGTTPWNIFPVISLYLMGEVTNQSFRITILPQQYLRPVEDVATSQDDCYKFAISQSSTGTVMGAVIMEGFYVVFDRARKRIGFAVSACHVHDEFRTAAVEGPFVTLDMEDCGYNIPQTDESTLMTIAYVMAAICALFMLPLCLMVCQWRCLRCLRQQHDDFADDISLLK

pIC50 [1]	concentration [4]	BPR [5]	SMILES	Papp [2]	pIC50 [3]
5.96	–	–	CC[C@H](NCC1Cc2cccc(c2)CCCCCc2cc(cc(N(C)S(C)(=O)=O)c2)C(=O)N1)C(=O)NCC(C)C (stereo partly drawn)	–	–
< 4.00	–	–	CNC(=O)c1cc(C(=O)NC(CO)Cc2cccc(OC)c2)cc(N(C)S(C)(=O)=O)c1 (stereo not drawn)	–	–
8.40	1100 nM	20%	CCCC[C@H](NC[C@@H]1Cc2cccc(c2)CCCCc2cc(cc(N(CCC)S(C)(=O)=O)c2)C(=O)N1)C(=O)NCC(C)C	13 ×10⁻⁶ cm/s	7.12

SMILES	pIC50 [1]	concentration [4]	BPR [5]	Papp [2]	pIC50 [3]
CC[C@H](NCC1Cc2cccc(c2)CCCCc2cc(cc(N(C)S(C)(=O)=O)c2)C(=O)N1)C(=O)NCC(C)C (stereo partly drawn)	7.05	–	–	19 ×10⁻⁶ cm/s	5.94
CC[C@H](NCC1Cc2cccc(c2)OCCNC(=O)c2cc(cc(N(C)S(C)(=O)=O)c2)C(=O)N1)C(=O)NCC(C)C (stereo partly drawn)	7.49	–	–	0.5 ×10⁻⁶ cm/s	5.27
